Targets include CSK (Homo sapiens, UniProt P41240); RIPK2 (Homo sapiens, UniProt O43353); CSNK1D (Homo sapiens, UniProt P48730); PKN1 (Homo sapiens, UniProt Q16512); RAF1 (Homo sapiens, UniProt P04049); NEK5 (Homo sapiens, UniProt Q6P3R8); NEK7 (Homo sapiens, UniProt Q8TDX7); AURKC (Homo sapiens, UniProt Q9UQB9); EGFR(T790M) (Homo sapiens, UniProt P00533, T790M); KIT(V559D,V654A) (Homo sapiens, UniProt P10721, V559D/V654A); CAMK1D (Homo sapiens, UniProt Q8IU85); KIT(D816V) (Homo sapiens, UniProt P10721, D816V); CLK2 (Homo sapiens, UniProt P49760); MET(M1250T) (Homo sapiens, UniProt P08581, M1250T); BTK (Homo sapiens, UniProt Q06187); MAP3K15 (Homo sapiens, UniProt Q6ZN16); FGFR3 (Homo sapiens, UniProt P22607); MAPKAPK5 (Homo sapiens, UniProt Q8IW41).

Common to all, as to test: biochemical
What all share (set-up): DiscoverX kinase panel, active-site competition binding (KINOMEscan type), percent of control at one concentration
Common to all, as to conditions: competition binding, percent of control

In experiment [1] the target is T1, JAK1(JH2domain-pseudokinase) (Homo sapiens, UniProt P23458).
T1 construct: JH2domain-pseudokinase

A further experiment addresses T2, AMPK-alpha1 (Homo sapiens, UniProt Q13131).
T2 construct: gene PRKAA1

The target in another experiment is T3, QSK (Homo sapiens, UniProt Q9Y2K2).
T3 construct: gene SIK3
T3 sequence (Q9Y2K2 whole entry): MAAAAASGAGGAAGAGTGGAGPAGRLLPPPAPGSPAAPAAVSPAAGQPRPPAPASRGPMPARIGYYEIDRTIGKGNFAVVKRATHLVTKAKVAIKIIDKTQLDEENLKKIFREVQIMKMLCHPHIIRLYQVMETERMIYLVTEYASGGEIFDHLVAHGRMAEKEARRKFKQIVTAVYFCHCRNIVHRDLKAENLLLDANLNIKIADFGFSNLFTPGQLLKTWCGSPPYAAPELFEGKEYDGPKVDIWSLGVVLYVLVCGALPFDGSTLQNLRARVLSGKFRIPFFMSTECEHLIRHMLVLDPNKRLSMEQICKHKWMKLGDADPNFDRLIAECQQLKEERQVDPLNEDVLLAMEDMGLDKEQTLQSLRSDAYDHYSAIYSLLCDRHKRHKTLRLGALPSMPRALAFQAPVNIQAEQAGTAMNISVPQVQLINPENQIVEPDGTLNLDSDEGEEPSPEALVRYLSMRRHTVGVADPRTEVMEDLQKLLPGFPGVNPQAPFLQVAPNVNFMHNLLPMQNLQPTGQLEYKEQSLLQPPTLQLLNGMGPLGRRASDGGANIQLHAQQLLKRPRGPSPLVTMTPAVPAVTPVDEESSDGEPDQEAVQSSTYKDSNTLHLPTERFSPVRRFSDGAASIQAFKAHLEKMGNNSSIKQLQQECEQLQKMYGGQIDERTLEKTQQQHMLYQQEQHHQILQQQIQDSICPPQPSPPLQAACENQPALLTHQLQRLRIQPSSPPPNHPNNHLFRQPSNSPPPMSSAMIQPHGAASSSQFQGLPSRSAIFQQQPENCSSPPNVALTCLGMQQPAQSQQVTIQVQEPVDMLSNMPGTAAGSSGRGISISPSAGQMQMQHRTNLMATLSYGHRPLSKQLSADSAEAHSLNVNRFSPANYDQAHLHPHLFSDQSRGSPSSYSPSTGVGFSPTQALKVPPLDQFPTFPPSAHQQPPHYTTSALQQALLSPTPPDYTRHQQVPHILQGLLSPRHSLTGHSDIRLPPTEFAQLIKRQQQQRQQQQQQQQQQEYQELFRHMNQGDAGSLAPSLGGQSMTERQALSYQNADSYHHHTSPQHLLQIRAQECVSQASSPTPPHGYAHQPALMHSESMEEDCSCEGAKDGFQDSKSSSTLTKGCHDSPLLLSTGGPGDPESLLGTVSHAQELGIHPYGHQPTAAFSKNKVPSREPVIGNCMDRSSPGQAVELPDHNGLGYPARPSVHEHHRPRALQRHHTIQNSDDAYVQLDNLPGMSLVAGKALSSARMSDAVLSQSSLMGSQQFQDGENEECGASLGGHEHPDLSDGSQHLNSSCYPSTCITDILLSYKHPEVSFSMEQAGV

MAP3K15, sequence (Q6ZN16 whole entry): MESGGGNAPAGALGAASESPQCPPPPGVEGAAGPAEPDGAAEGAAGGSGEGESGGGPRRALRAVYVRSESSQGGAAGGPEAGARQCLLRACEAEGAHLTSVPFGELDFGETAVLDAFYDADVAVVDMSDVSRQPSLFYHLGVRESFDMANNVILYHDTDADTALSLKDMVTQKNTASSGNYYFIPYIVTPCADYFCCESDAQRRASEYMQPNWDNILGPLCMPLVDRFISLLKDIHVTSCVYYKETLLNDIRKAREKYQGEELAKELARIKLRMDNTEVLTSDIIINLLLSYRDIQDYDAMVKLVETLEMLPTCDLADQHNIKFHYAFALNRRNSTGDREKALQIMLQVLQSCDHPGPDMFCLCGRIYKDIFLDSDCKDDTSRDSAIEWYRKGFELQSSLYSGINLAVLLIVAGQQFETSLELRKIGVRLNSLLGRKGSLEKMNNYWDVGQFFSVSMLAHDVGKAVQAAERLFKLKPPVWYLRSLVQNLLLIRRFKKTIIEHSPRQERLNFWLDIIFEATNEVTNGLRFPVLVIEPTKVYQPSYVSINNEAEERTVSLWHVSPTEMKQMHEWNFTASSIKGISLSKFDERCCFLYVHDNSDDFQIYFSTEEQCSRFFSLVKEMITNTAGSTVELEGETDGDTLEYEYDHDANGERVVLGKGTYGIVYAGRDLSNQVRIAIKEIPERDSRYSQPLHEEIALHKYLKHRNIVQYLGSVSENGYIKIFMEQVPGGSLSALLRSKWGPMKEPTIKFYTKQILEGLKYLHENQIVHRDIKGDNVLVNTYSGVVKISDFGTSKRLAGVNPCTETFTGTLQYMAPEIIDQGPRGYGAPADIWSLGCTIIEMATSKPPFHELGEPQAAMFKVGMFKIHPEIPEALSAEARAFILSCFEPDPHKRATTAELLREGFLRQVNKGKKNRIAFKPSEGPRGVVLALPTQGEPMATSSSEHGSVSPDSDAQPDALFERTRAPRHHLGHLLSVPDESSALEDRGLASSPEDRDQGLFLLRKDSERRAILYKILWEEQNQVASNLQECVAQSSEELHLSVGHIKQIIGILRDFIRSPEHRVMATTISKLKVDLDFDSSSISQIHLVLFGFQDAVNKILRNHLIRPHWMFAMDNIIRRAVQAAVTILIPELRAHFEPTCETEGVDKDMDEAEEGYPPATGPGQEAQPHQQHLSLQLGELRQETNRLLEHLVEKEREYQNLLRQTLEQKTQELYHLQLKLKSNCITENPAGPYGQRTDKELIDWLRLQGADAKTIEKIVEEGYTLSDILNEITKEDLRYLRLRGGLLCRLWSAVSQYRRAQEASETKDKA
MAPKAPK5, sequence (Q8IW41 whole entry): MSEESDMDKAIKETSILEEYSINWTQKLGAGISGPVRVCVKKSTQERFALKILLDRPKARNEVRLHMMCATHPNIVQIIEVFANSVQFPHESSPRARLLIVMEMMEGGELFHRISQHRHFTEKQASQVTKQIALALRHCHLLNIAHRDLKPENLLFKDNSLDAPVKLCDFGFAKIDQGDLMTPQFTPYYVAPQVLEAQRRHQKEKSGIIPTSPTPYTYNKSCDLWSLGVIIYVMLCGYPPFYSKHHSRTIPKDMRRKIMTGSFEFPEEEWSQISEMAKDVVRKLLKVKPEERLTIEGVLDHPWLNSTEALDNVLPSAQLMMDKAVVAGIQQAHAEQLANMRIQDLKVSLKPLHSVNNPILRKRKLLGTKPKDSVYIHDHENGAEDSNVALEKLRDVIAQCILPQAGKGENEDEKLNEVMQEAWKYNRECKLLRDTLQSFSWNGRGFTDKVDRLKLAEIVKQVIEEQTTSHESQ
KIT(D816V), sequence (P10721 whole entry D816V): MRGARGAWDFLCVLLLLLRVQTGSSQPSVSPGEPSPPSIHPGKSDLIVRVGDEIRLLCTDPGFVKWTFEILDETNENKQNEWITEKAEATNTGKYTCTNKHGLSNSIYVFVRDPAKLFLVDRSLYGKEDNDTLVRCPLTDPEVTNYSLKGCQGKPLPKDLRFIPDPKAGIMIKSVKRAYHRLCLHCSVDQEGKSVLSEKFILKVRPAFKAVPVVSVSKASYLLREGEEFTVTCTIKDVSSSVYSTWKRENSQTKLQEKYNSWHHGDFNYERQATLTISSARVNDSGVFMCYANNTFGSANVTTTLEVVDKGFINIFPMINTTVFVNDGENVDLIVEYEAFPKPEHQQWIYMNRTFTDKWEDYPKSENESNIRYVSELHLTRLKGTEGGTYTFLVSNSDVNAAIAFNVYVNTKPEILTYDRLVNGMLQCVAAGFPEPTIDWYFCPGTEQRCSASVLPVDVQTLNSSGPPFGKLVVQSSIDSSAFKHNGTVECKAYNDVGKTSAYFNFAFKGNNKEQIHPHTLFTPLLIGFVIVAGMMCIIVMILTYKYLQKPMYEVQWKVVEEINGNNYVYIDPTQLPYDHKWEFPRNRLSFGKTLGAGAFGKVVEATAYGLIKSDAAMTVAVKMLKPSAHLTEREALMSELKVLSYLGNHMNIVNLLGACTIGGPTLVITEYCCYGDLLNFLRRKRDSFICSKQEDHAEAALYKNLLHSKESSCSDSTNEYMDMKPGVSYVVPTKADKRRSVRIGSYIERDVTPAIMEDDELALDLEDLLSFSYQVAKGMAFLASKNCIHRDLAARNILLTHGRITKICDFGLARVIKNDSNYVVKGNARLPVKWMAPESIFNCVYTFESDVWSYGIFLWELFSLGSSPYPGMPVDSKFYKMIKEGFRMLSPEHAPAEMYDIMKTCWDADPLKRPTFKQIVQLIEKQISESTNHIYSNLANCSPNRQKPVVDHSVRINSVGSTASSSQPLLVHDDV
KIT(V559D,V654A), sequence (P10721 whole entry V559D/V654A): as the sequence (P10721 whole entry D816V) above, with V559D, V654A, V816D counted along it
NEK7, sequence (Q8TDX7 whole entry): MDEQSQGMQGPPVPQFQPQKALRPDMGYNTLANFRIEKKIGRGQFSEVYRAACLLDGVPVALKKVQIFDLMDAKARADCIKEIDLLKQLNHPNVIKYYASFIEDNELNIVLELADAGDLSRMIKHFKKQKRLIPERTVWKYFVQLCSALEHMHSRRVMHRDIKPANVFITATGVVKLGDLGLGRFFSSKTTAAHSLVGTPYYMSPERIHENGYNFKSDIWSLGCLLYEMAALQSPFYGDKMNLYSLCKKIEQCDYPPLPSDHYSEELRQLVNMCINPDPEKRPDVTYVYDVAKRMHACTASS
CSNK1D, sequence (P48730 whole entry): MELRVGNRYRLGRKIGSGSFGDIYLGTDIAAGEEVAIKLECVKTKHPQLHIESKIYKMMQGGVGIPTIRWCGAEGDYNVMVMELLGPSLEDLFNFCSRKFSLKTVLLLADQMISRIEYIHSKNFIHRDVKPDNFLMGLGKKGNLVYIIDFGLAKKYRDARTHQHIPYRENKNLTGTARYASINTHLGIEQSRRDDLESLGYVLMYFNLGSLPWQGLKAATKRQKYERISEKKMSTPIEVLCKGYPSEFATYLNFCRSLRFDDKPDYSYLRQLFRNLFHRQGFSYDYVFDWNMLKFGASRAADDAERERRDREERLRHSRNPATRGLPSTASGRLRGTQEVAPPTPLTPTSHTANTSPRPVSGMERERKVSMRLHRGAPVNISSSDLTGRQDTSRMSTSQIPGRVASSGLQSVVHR

Turning to `COc1cc2c(cn1)N(C)C(=O)[C@@H](NC(=O)c1nc3n(n1)[C@H](c1ccccc1)CC3)CC2` [GNE684, (S)-N-((S)-7-methoxy-1-methyl-2-oxo-2,3,4,5-tetrahydro-1H-pyrido[3,4-b]azepin-3-yl)-5-phenyl-6,7-dihydro-5H-pyrrolo[1,2-b][1,2,4]triazole-2-carboxamide], the remaining binding at 10 µM in [1] is 48%; at CSK, 100%; at RIPK2 it was 100%; on CSNK1D it was 100%; on PKN1, 94%; on RAF1 it was 77%. For the same compound, the remaining binding at 10 µM on NEK5 came out at 100%; at AMPK-alpha1, 97%; at NEK7 it was 97%; on AURKC, 93%; at EGFR(T790M) it was 100%; on KIT(V559D,V654A) it was 100%. For the same compound, the remaining binding at 10 µM came out at 98% on CAMK1D; 100% on KIT(D816V); 74% at CLK2; 100% on MET(M1250T); 97% at QSK; 100% on BTK. Further, the remaining binding at 10 µM at MAP3K15 came to 94%; at FGFR3 it was 100%; on MAPKAPK5, 100%.

The record behind these values is paper PMC7206119, “RIP1 inhibition blocks inflammatory diseases but not tumor growth or metastases” (Cell Death and Differentiation, 2019).
